Like-named read-outs stand apart in the source and are kept apart here.

Assay [1] relates to phosphorylation of ERK. In words: Inhibition of ERK phosphorylation (Western blot) in KYSE520 cells. It counts as cell-based. The following applies: for concentration effective in reducing the level of pERK: KYSE520, 48 h. How it is done: (§1) Western blotting and quantification were performed with regular western blot method and band quantification was performed using ImageJ. Treated cells were lysed by RIPA buffer supplemented with protease and phosphatase inhibitors. The cell lysates were separated by 4-12% SDS-PAGE gels and blotted into PVDF (polyvinylidene difluoride) membranes. The net protein bands and loading controls are calculated by deducting the background from the inverted band value. The final relative quantification values are the ratio of the net band to net loading control.
(§2) GAPDH was used as a loading control. (FIG. 3A and FIG. 3B).
A general note: Immunoblotting shows a protein as a band on a membrane.

Assay [2] deals with KYSE520 cell line. In words: Cell growth assay (WST-8) in KYSE520. It counts as cell-based. The settings on record: for IC50: KYSE520, 4 days, read-out: IC50, cell growth inhibition. As to the method: (§3) Cell viability was evaluated with a WST-8 assay (Dojindo) following the manufacturer’s instructions. Briefly, cells were seeded in 96-well cell culture plates at a density of 10,000-20,000 cells/well in 200 µL for MV4;11 cell line or 2,000-3,000 for KYSE-520 cell line of culture medium containing serial dilution of testing compounds. After 4 days of treatment, cell growth was measured by a lactate dehydrogenase-based WST-8 assay (Dojindo Molecular Technologies) using a Tecan Infinite M-1000 multimode microplate reader (Tecan US, Morrisville, NC). The WST-8 reagent was added to each well, and cells were incubated for an additional 1-2 h and read at 450 nm. The readings were normalized to the vehicle-treated cells, and the IC50 was calculated by nonlinear regression analysis using the GraphPad Prism 6 software.
(§4) Briefly, Cells were treated with indicated doses for 4 days and cell viability was determined by a colorimetric WST-8 assay.
For orientation: Tetrazolium assays rely on reduction of a dye to a coloured formazan, in cell work by metabolically active cells.

The subject of assay [3] is phosphorylation of ERK. In words: Inhibition of ERK phosphorylation (Western blot) in MV4;11 cells. It counts as cell-based. The settings on record: for concentration for complete inhibition of pERK: MV4;11, 48 h. As to the method: as §1, §2
Assay [4] concerns MV4;11 cell line. Description: Cell growth assay (WST-8) in MV4;11. It counts as cell-based. The following applies: for IC50: MV4;11, 4 days, read-out: IC50, cell growth inhibition. As to the method:
as §3, §4

Assay [5] addresses T1, SHP2 (Homo sapiens, UniProt Q06124).
T1 sequence (Q06124 1-593): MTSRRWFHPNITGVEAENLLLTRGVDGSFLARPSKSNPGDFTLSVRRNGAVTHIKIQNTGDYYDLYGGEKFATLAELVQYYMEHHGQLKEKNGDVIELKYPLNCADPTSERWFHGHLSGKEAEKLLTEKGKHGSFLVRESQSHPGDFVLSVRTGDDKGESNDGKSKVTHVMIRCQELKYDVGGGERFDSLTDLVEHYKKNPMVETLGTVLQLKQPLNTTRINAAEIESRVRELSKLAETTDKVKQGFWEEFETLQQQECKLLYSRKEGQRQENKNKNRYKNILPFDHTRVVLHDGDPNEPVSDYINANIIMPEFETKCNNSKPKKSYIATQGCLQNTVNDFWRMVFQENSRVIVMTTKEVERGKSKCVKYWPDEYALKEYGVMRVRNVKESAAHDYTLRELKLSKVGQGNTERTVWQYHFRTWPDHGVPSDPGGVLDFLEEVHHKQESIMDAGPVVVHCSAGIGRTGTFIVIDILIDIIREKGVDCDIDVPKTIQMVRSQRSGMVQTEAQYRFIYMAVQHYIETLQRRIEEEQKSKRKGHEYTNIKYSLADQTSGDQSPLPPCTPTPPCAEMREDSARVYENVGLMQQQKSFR
Description: SHP2 allosteric inhibition assay. The assay is classed as biochemical. The following applies: 0.5 nM SHP2, 0.5 µM bisphosphorylated IRS1 peptide, DiFMUP substrate. How it is done: Assay buffer conditions: 60 mM HEPES, pH 7.2, 75 mM NaCl, 75 mM KCl, 0.05% P-20, 5 mM DTT,1 mM EDTA. 0.5 nM of SHP2 was incubated with 0.5 µM of bisphosphorylated IRS1 peptide and 100 µM (top concentration 3X dilution) of the inhibitory compounds. After incubation 60 min at RT, 5 µl 200 µM substrate DiFMUP (Invitrogen) was added and incubated another 30 min at RT. […] The fluorescence signal was detected by CLARIOstar (BMG tech), excitation wavelength was 340 nm and emission wavelength was 450 nm. The inhibitor dose-response curves were analyzed by Graphpad Prism 8.

Assay [6] addresses T1, SHP2. Description: SHP2 degradation by Western blot in KYSE520 cells.
Description: (§5) Western blotting and quantification were performed with regular western blot method and band quantification was performed using ImageJ. Treated cells were lysed by RIPA buffer supplemented with protease and phosphatase inhibitors. […] The net protein bands and loading controls are calculated by deducting the background from the inverted band value. The final relative quantification values are the ratio of the net band to net loading control.
(§6) The treated cells were harvested and the level of SHP2 protein was examined by blot analysis. GAPDH was used as a loading control.
(§7) SHP2 protein was examined by Western blotting and the protein level was quantified by densitometry and normalized to the corresponding density of the GAPDH protein. […] Cells were treated with 100 nM of SHP2-D26 for different times. SHP2 protein was examined by Western blotting and the GAPDH protein was used as the loading control.
Assay [7] deals with T1, SHP2. In words: SHP2 degradation by Western blot in MV4;11 cells.
Description: as §5, §6, §7

With `CC1(N)CCN(c2cnc(-c3cccc(Cl)c3Cl)c(N)n2)CC1` [SHP099, reference compound], the “concentration effective in reducing the level of pERK” value in assay [1] was > 3,000 nM. Also, the IC50 in assay [2] worked out at 18.2 µM; in assay [4], 1 µM. For the same molecule, in assay [3], the “concentration for complete inhibition of pERK” value is > 3,000 nM.

For `CC(=O)Nc1cccc(Sc2ncc(N3CCC(C)(N)CC3)nc2N)c1Cl` [Compound 5, N-(3-((3-amino-5-(4-amino-4-methylpiperidin-l-yl)pyrazin-2-yl)t′hio)-2-chlorophenyl)acetamide], the IC50 is 39.4 µM in assay [2] (Homo sapiens, KYSE-520, 96 h); 0.0987 µM in assay [5]; 6.6 µM in assay [4] (Homo sapiens, 96 h).

In the case of `Cc1ncsc1-c1ccc([C@@H](C)NC(=O)[C@H]2C[C@H](O)CN2C(=O)[C@H](NC(=O)CCCCCCCCN2CCN(C(=O)CCC(=O)Nc3cccc(Sc4ncc(N5CCC(C)(N)CC5)nc4N)c3Cl)CC2)C(C)(C)C)cc1` [Compound 26], the “times more potent than SHP099 in inhibition of pERK” value in assay [1] (KYSE520) is > 30 times. Moreover, the “concentration effective in reducing the level of pERK” value in assay [1] was 100 nM. For the same molecule, the IC50 in assay [2] (Homo sapiens, KYSE-520, 96 h) worked out at 0.66 µM. For the same molecule, in assay [2] (KYSE520), the “times more potent than SHP099 in inhibiting cell growth” value came out at 28 times, the “times more potent than compound 4 in inhibiting cell growth” value is on record as 64 times and the “times more potent than compound 5 in inhibiting cell growth” value amounted to 60 times. Further, the “% of SHP2 protein degradation in KYSE520 cell line” value in assay [6] (0.1 µM) is reported as >95%. Also, the “% of SHP2 protein degradation in KYSE520 cell line” value in assay [6] (1 µM) was >95%. In assay [6] (KYSE520, 100 nM), the “time to reduce the SHP2 protein level” value is reported as ≤ 4 h and the “treatment time for essentially complete SHP2 depletion” value was 8 h. The DC50 in assay [6] (read-out: DC50 (concentration needed to induced targeted protein degradation by 50%), KYSE520, 12 h) was 0.006 µM. Moreover, in assay [3] (MV4;11), the “times more potent than SHP099 in inhibition of pERK” value is given as > 30 times. Moreover, the “concentration for complete inhibition of pERK” value in assay [3] is given as 100 nM. In assay [4] (Homo sapiens, 96 h), the IC50 came to 0.0099 µM. For the same molecule, in assay [4] (MV4;11), the “times more potent than SHP099 in cell growth inhibition” value is reported as 100 times, the “times more potent than compound 4 in cell growth inhibition” value is on record as > 400 times and the “times more potent than compound 5 in cell growth inhibition” value is recorded as > 600 times. Also, in assay [7] (0.1 µM), the “% of SHP2 protein degradation in MV4;11 cell line” value was >95%. For the same molecule, the DC50 in assay [7] (read-out: DC50 (concentration needed to induced targeted protein degradation by 50%), MV4;11, 12 h) is 0.0026 µM.

As usually defined, the IC50 is the concentration that inhibits the measured activity by half.

The record behind these values is patent US20230218765A1, “SMALL MOLECULE DEGRADERS OF SHP2 PROTEIN” (THE REGENTS OF THE UNIVERSITY OF MICHIGAN, priority 2020, published 2023).
